Several values for one entry are separate records, joined by “and”; a condition that tells them apart may be missing. Equal entries are not always repeated. Marks after values point to notes of the source that are not given here.
Experiments:
[1] = tested on: clot formation in the milk of a transgenic cow; experiment: Heparin therapy in one transgenic cow, clot scores; type: in vivo
Description: The inventors also used heparin therapy in one transgenic cow to evaluate if it would prevent clot formation at a dose of 150 IU/kg SQ twice a day, for 5 days. While when the heparin was administered to this cow, the clot scores decreased. […] However, due to the high costs of using heparin, that treatment was not further investigated. Other anticoagulants can be used but many have the disadvantage that they need to be injected intravenously or subcutaneously rather than be or administered orally.

[2] = tested on: clots and flakes in the milk of transgenic rhFib cattle; experiment: Clot scoring of milk of transgenic rhFib cattle during induced lactation; type: in vivo; design: key to clot scores / clot score: 0: Normal milk; 1: Flakes; 2: Less than 10 clots from the quarter on the CMT paddle; 3: Greater than 10 clots from the quarter on the CMT paddle; 4: Severe visible clots
Excerpt: Recombinant human fibrinogen has been produced in the milk of transgenic cows for some years now. […] To score the level of clotting and to measure any effects, standards were set to determine whether treatment of the cows to reduce clotting was indeed effective. The standards are provided in Table I. Score level 0 is equal to normal milk from non-transgenic cows, whereas score level 4 equals a dramatic level of clotting and the milking machine is unable to extract the milk from the teat. CMT stands for ‘California Mastitis Test’ and is a standard cow side test that screens for the presence of mastitis, a known cause of milk clotting. When a cow is milked, the milk is collected in a so-called CMT paddle, which has four cups corresponding to the four quarters of the udder. To these cups, equal amounts of CMT solution (made up of a detergent to break down cell walls, a compound that reacts with the cellular DNA and a pH indicator; California Mastitis Test kit, TechniVet, Brunswick, Me.) is added after which the solution is swirled. The CMT solution provides an estimate of the number of cells in the milk (inflammatory cells due to infection by mastitis). As the cell content increases the mixture becomes thick and gel-like and the results are based on the appearance of the solutions. ‘Negative’ in the mastitis test means that the mixture remains fluid; ‘suspicious’ means that the mixture becomes slimy or gel like, and ‘positive’ means that the mixture distinctly forms a gel or jelly. […] The lack of mastitis was also confirmed by the fact that in laboratory tests no inflammatory-inducing bacteria were grown from the rhFib transgenic cow milk. Finally the clinical signs of the cows confirmed that infectious mastitis was not the etiology of the clotting. […] The (blue) staining by the CMT solution provided a useful tool to visualize the clots and helped to distinguish between some of the low scores of rate 1 and 2.
A cow's udder has four quarters, each with their own teat. A cow may loose a quarter due to mastitis but still give milk through the remaining quarters. […] Therefore at each milking period, each quarter was given a clot score and recorded on her milk sheet form. The highest score on the paddle for each day was considered the cow's score for that day when complying the clotting data.
With natural lactation, it is common for cattle to develop swelling and edema in their udders around the time of calving and as they “come into milk” during the first few weeks of lactation. This inflammation of the mammary tissue may activate the rhFib and lead to precipitation within the mammary tissue. This then may lead to a decrease in the milk production and difficulty in removing the milk from the gland. It was hypothesized by the inventors that by a non-natural lactation (that is: by a chemical/hormonal lactation induction), this udder swelling and edema would be avoided and the rhFib would not be activated. This would facilitate an easier lactation with minimal precipitation. For this reason, lactation induction was chosen to produce rhFib in cow #13.
After this, all clot scores remained between 0-1. […] This dose was maintained during day 17 to day 31 and all clot scores still remained between 0-1.
Seven transgenic rhFib cattle were induced to lactate using an estradiol-progesterone alcohol solution and dexamethasone injections as outlined above. From these seven animals, after an initial 34 days of milking, five transgenic cattle were selected to complete an ongoing 16 week lactation period (146 days in total). During this 16 week period 5 liters of milk was saved per animal per week for future production purposes. If an animal was to develop consistent clotting within this production period then a treatment trial with warfarin would begin. Data was collected on these animals to see what level of clot scores they generally reached. […]

[3] = for 5 days; cited from earlier work
[4] = tested on: clots and flakes in the milk of rhFib transgenic cattle; experiment: Clot scoring of milk of rhFib transgenic cow and heifers during natural lactation; type: in vivo; details: all five animals
Excerpt: Recombinant human fibrinogen has been produced in the milk of transgenic cows for some years now. […] To score the level of clotting and to measure any effects, standards were set to determine whether treatment of the cows to reduce clotting was indeed effective. The standards are provided in Table I. Score level 0 is equal to normal milk from non-transgenic cows, whereas score level 4 equals a dramatic level of clotting and the milking machine is unable to extract the milk from the teat. CMT stands for ‘California Mastitis Test’ and is a standard cow side test that screens for the presence of mastitis, a known cause of milk clotting. When a cow is milked, the milk is collected in a so-called CMT paddle, which has four cups corresponding to the four quarters of the udder. To these cups, equal amounts of CMT solution (made up of a detergent to break down cell walls, a compound that reacts with the cellular DNA and a pH indicator; California Mastitis Test kit, TechniVet, Brunswick, Me.) is added after which the solution is swirled. The CMT solution provides an estimate of the number of cells in the milk (inflammatory cells due to infection by mastitis). […]
A cow's udder has four quarters, each with their own teat. […] Therefore at each milking period, each quarter was given a clot score and recorded on her milk sheet form. […]

[5] = tested on: recombinant human fibrinogen (rhFib); experiment: ELISA of rhFib concentration in the milk of warfarin-treated transgenic heifers; details: for rhFib level: ELISA, lines = day, warfarin started on day 1
[6] = Determination of warfarin dosing in non-transgenic non-lactating cows (PT time, adverse effects); type: in vivo, cattle
Description: An initial experiment was performed to determine a dose range of warfarin in cattle. […] The doses therein range from 0.012 to 0.57 mg/kg.
An initial baseline Prothombin time (PT time) and Hematocrit (Hct) were determined. For cow #4289 Hct was 38 and PT was 25.9 seconds. For cow #6685 Hct was 27 and PT time was 26.7 seconds. PT time is a laboratory assay that reflects the depression of vitamin K dependent Factors II, -VII and -X. The PT times were used to determine the final dosing. The PT time test that is generally used in the art, looks at coagulation factors Factor I (fibrinogen), Factor II (prothrombin), Factor V, Factor VII and Factor X, that are all involved in clotting. The test measures the time it takes for a patient's blood to clot. […] The Hct value is helpful to determine if the animal is becoming anemic (i.e. blood loss that would not be grossly evident). In general, Hct is not checked unless one is concerned that blood loss is occurring.
Initially a dose necessary to double the baseline PT times was to be determined and then the dose was to be increased to monitor for adverse affects. It was decided that if the PT levels began to be prolonged over 2.5 times baseline, or Hct fell below 15% the dose would be decreased. Likewise, it was held that the dose would be decreased or discontinued if any of the following disorders would appear: hematomas, anemia, epistaxis, hematemesis, hematuria, melena, hemathrosis, hemothrax, weakness or hematochezia, or bleeding within the udder. Therapy with vitamin K1 and whole blood would be initiated if there was evidence of […] bleeding.
Moreover, and for the same reason, pregnant animals were also not treated with warfarin.
The dose was increased by 10 mg/day until a dose of 100 mg/day was given (˜0.14 mg/kg). Then, this dose was maintained for 12 days. […] Therefore the following adjustments were made: First, the animal was sedated with xylazine, and second, blood was only collected from the jugular vein while the animal's head was tightly restrained. The dose was increased to 120 mg/day (˜0.17 mg/kg) for 17 days.
It took 6 days of therapy for the PT times to double. […] For this reason, this dose of approximately 0.18 mg/kg was then considered unsafe for use in the transgenic rhFib cows.

Question: With heparin as the compound, how does the clot scores ([1]; 150 IU/kg SQ twice a day for 5 days, during administration) read?
Answer: decreased

Question: What about the clot scores ([1]; after heparin therapy was discontinued) of the same compound?
Answer: remained low and decreased further with time

Question: What does the source list for CC(=O)CC(c1ccccc1)c1c(O)c2ccccc2oc1=O (centres unmarked) [warfarin]?
Answer: clot scores ([2]; #462 and #463, dry off period after warfarin stopped): 3 (Greater than 10 clots from the quarter on the CMT paddle); clot score ([2]; #462 at day 125, single score during treatment): 1; clot scores ([2]; #462 at day 149, after warfarin stopped at day 142, milk started to plug the filters): 1; clot scores ([2]; #463 at day 161, single quarter, after warfarin stopped at day 142): 1; time until clot scores increased to level 3 after warfarin was stopped ([2]; #474, stopped at day 142 of milking): ≤ 3 days; Highest clot score, #474 Frey ([2]; after discontinuation of warfarin on day 142 of lactation, lines = week of lactation): 3* (Greater than 10 clots from the quarter on the CMT paddle); clot scores ([2]; cow #13, 0.12 mg/kg, day 17 to day 31): 0-1; adverse effects ([2]; cow #13, 0.12 or 0.13 mg/kg per day): No adverse effects were observed; clot scores ([2]; cow #13, 7 days after warfarin therapy was re-initiated): 1; clot scores ([2]; cow #13, 18 days after warfarin was again discontinued, until dried off): 2 (Less than 10 clots from the quarter on the CMT paddle); clot scores ([2]; cow #13, induced lactation, 0.13 mg/kg orally once a day from Time 0): 0-1; clot scores ([2]; cow #13, over the next 11 days after re-initiation): 0; clot scores ([2]; cow #13, warfarin discontinued for 19 days): 2 (Less than 10 clots from the quarter on the CMT paddle); clot scores reached with warfarin treatment ([2]; cow #13, within a week (conclusion)): 0-1; clot scores ([2]; three heifers #462, #463, #474, within a week after warfarin therapy was initiated): 1; PT times equal to or above twice the baseline value ([2]; three rhFib-transgenic heifers, 0.10 mg/kg daily, PT monitored weekly): did not occur; LD50 for cattle [3]: 200 mg/kg/day; adverse reactions from the warfarin treatment ([4]; 0.10 to max 0.15 mg/kg): did not show any adverse reactions; highest clot scores ([4]; after a few days of warfarin 0.10 mg/kg): 0-1; rhFib level ([5]; heifer 462): 1.3 mg/ml raw milk and 2.09 mg/ml raw milk; rhFib level ([5]; heifer 463): 1.61 mg/ml raw milk; rhFib level ([5]; heifer 474): 0.41 mg/ml raw milk and 0.58 mg/ml raw milk; concentration of rhFib in milk over time upon warfarin treatment ([5]; three warfarin-treated heifers, while clot score levels drop): seem to increase; adverse effects ([6]; cow #4289, 120 mg/day (~0.17 mg/kg) orally for 17 days): no adverse effects were observed; adverse effects ([6]; cow #4289, 130 mg/day (~0.18 mg/kg) orally for 6 days, animal euthanized): developed a bleeding hematoma over the shoulder/thorax; days of therapy for the PT times to double ([6]; cow #6685, 100 mg/day (~0.18 mg/kg)): 6 days; adverse effects ([6]; cow #6685, 100 mg/day (~0.18 mg/kg) orally for 14 days): No adverse affects were found
